According to the supplement of paper PMC11208160:

Experiment: recombinant barcode read abundance after kanamycin selection (control-corrected) (log10(CPM+1)); higher = more efficient recombination; sequences stand for … in AGTGCAGAGAAAATCGGCCAGTTTTCTCTGCCTGCAGTCCGCATGCCGT…AGATTTATGCAGCGGACTGCCTTTCTCCCAAAGTGATAAACCGGACAGTATCATGGACCGGTTTTCCCGGTAATCCGTATTTGCAAGGTTGGTTTCACT; site = the 11-nt target
Description: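 Pooled E. coli target-specificity screen for the IS621 bridge recombinase. Each library plasmid pairs an 11-nt target (CT core) with a bridge RNA whose target-binding loop (9-nt LTG + 4-nt RTG) is reprogrammed; the rest of the 177-nt WT IS621 bridge RNA scaffold is fixed. The plasmid is co-electroporated with a WT donor plasmid; recombinase is induced with 0.1 mM IPTG and recombinants are selected on kanamycin. Recombinant barcodes are sequenced, converted to CPM, averaged over two biological replicates and corrected by the unselected control CPM. Molecule = full bridge RNA written as DNA: LTG = specificity nt 1-9, RTG = reverse complement of specificity nt 8-11, in the WT scaffold.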
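Also: IS621 recombinase and bridge RNA in Escherichia coli cells.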

ACATGTACTTGGGTTCTAACCTGTTGCAT (site ACATGTACTAT)
recombinant barcode read abundance (log10): 0.888

ACATGTACTTGGGTTCTAACCTGTTGCCG (site ACATGTACTCA)
recombinant barcode read abundance (log10): 0.0415

ACATGTACTTGGGTTCTAACCTGTTGCCG (site ACATGTACTCG)
recombinant barcode read abundance (log10): 0.158

ACATGTACTTGGGTTCTAACCTGTTGCTG (site ACATGTACTCA)
recombinant barcode read abundance (log10): 1.1

ACATGTACTTGGGTTCTAACCTGTTGCTG (site ACATGTACTCG)
recombinant barcode read abundance (log10): 0.182

ACATTGCCTTGGGTTCTAACCTGTTGCCT (site ACATTGCCTAG)
recombinant barcode read abundance (log10): 0.44

ACATTGCCTTGGGTTCTAACCTGTTGCCT (site ACCTTGCCTAG)
recombinant barcode read abundance (log10): 0.0938

ACATTGCCTTGGGTTCTAACCTGTTGCCT (site ACGTTGCCTAG)
recombinant barcode read abundance (log10): 0.732

ACATTGCCTTGGGTTCTAACCTGTTGCCT (site ACTTTGCCTAG)
recombinant barcode read abundance (log10): 0

ACCAAGTCTTGGGTTCTAACCTGTTGCGC (site ACCAAGTCTAC)
recombinant barcode read abundance (log10): 0.251

ACCAAGTCTTGGGTTCTAACCTGTTGCGC (site ACCAAGTCTGC)
recombinant barcode read abundance (log10): 1.74

ACCACAGCTTGGGTTCTAACCTGTTGCCT (site ACCAAAGCTTG)
recombinant barcode read abundance (log10): 0.16

ACCACAGCTTGGGTTCTAACCTGTTGCCT (site ACCACAGCTAG)
recombinant barcode read abundance (log10): 0.283

ACCAGATCTTGGGTTCTAACCTGTTGCCT (site ACCAGATCTAG)
recombinant barcode read abundance (log10): 0.846

ACCAGATCTTGGGTTCTAACCTGTTGCCT (site TCCAGCTCTAG)
recombinant barcode read abundance (log10): 0.152

ACCCAGCCTTGGGTTCTAACCTGTTGCAG (site ACCCAGCCTCT)
recombinant barcode read abundance (log10): 2.27

ACCCAGCCTTGGGTTCTAACCTGTTGCAG (site TGAGTCTCTTG)
recombinant barcode read abundance (log10): 0.0203

ACCCAGCCTTGGGTTCTAACCTGTTGCAT (site ACCCAGCCTAA)
recombinant barcode read abundance (log10): 1.4

ACCCAGCCTTGGGTTCTAACCTGTTGCAT (site ACCCAGCCTAC)
recombinant barcode read abundance (log10): 0.265

ACCCAGCCTTGGGTTCTAACCTGTTGCAT (site ACCCAGCCTAG)
recombinant barcode read abundance (log10): 0.68

ACCCAGCCTTGGGTTCTAACCTGTTGCAT (site ACCCAGCCTAT)
recombinant barcode read abundance (log10): 2.45

ACCCAGCCTTGGGTTCTAACCTGTTGCTT (site ACCCAGCCTAA)
recombinant barcode read abundance (log10): 1.77

ACCCAGCCTTGGGTTCTAACCTGTTGCTT (site ACCCAGCCTAC)
recombinant barcode read abundance (log10): 0.278

ACCCAGCCTTGGGTTCTAACCTGTTGCTT (site ACCCAGCCTAG)
recombinant barcode read abundance (log10): 0.758

ACCCAGCCTTGGGTTCTAACCTGTTGCTT (site ACCCAGCCTAT)
recombinant barcode read abundance (log10): 1.41

ACCCGTACTTGGGTTCTAACCTGTTGCCT (site ACCAGTACTAG)
recombinant barcode read abundance (log10): 0.063

ACCCGTACTTGGGTTCTAACCTGTTGCCT (site ACCCGTACTAG)
recombinant barcode read abundance (log10): 1.26

ACCCGTACTTGGGTTCTAACCTGTTGCCT (site ACCGGTACTAG)
recombinant barcode read abundance (log10): 0.0386

ACCCGTACTTGGGTTCTAACCTGTTGCCT (site ACCTGTACTAG)
recombinant barcode read abundance (log10): 0.485

ACCCGTCCTTGGGTTCTAACCTGTTGCAG (site ACCCGTCCTCT)
recombinant barcode read abundance (log10): 2.67

ACCCGTCCTTGGGTTCTAACCTGTTGCAG (site GGCCGTCCTCT)
recombinant barcode read abundance (log10): 0.051

ACCCTAGCTTGGGTTCTAACCTGTTGCCA (site ACCCTAGCTTG)
recombinant barcode read abundance (log10): 1.52

ACCCTAGCTTGGGTTCTAACCTGTTGCCA (site ATCGTAGCTTG)
recombinant barcode read abundance (log10): 0.0661

ACCCTAGCTTGGGTTCTAACCTGTTGCTC (site AACCTAGCTTA)
recombinant barcode read abundance (log10): 0.191

ACCCTAGCTTGGGTTCTAACCTGTTGCTC (site ACCCTAGCTGA)
recombinant barcode read abundance (log10): 1.95

ACCCTATCTTGGGTTCTAACCTGTTGCTT (site ACCCTATCTAA)
recombinant barcode read abundance (log10): 0.944

ACCCTATCTTGGGTTCTAACCTGTTGCTT (site ACTCTGTCTAA)
recombinant barcode read abundance (log10): 0.114

ACCGACCCTTGGGTTCTAACCTGTTGCAT (site ACCGACCCTAT)
recombinant barcode read abundance (log10): 1.67

ACCGACCCTTGGGTTCTAACCTGTTGCAT (site TAGTTTGCTCG)
recombinant barcode read abundance (log10): 0.401

ACCGCGTCTTGGGTTCTAACCTGTTGCAT (site ACCGCGTCTAT)
recombinant barcode read abundance (log10): 0.521

ACCGCGTCTTGGGTTCTAACCTGTTGCAT (site TTGATAGCTTA)
recombinant barcode read abundance (log10): 0.0509

ACCGCTCCTTGGGTTCTAACCTGTTGCCT (site AACGCTCCTAG)
recombinant barcode read abundance (log10): 0.0208

ACCGCTCCTTGGGTTCTAACCTGTTGCCT (site ACCGCTCCTAG)
recombinant barcode read abundance (log10): 0.297

ACCGCTCCTTGGGTTCTAACCTGTTGCCT (site AGCGCTCCTAG)
recombinant barcode read abundance (log10): 0.0225

ACCGCTCCTTGGGTTCTAACCTGTTGCCT (site ATCGCTCCTAG)
recombinant barcode read abundance (log10): 0.0271

ACCTACCCTTGGGTTCTAACCTGTTGCCT (site ACATACACTAG)
recombinant barcode read abundance (log10): 0.136

ACCTACCCTTGGGTTCTAACCTGTTGCCT (site ACCTACCCTAG)
recombinant barcode read abundance (log10): 1.14

ACCTACGCTTGGGTTCTAACCTGTTGCCT (site ACCTACGCTAG)
recombinant barcode read abundance (log10): 1.01

ACCTACGCTTGGGTTCTAACCTGTTGCCT (site ACCTACTCTAG)
recombinant barcode read abundance (log10): 0.23

ACCTACTCTTGGGTTCTAACCTGTTGCTT (site ACCTACTCTAA)
recombinant barcode read abundance (log10): 1.33

ACCTACTCTTGGGTTCTAACCTGTTGCTT (site AGCTACCCTAA)
recombinant barcode read abundance (log10): 0.315

ACCTCGGCTTGGGTTCTAACCTGTTGCTG (site ACCTCGGCTCA)
recombinant barcode read abundance (log10): 0.399

ACCTCGGCTTGGGTTCTAACCTGTTGCTG (site TGGCAATCTAG)
recombinant barcode read abundance (log10): 0.0759

ACCTTAGCTTGGGTTCTAACCTGTTGCTT (site ACCTTAGCTAA)
recombinant barcode read abundance (log10): 0.297

ACCTTAGCTTGGGTTCTAACCTGTTGCTT (site TAGGCGACTTG)
recombinant barcode read abundance (log10): 0.0735

ACCTTGTCTTGGGTTCTAACCTGTTGCTA (site ACCTTGTCTTA)
recombinant barcode read abundance (log10): 0.777

ACCTTGTCTTGGGTTCTAACCTGTTGCTA (site GCCATGTCTTA)
recombinant barcode read abundance (log10): 0.0578

ACGAAGGCTTGGGTTCTAACCTGTTGCCT (site ACGAAGGCTAG)
recombinant barcode read abundance (log10): 0.696

ACGAAGGCTTGGGTTCTAACCTGTTGCCT (site ACGAAGGCTCG)
recombinant barcode read abundance (log10): 0.0407

ACGAGCGCTTGGGTTCTAACCTGTTGCCT (site ACGAACGCTAG)
recombinant barcode read abundance (log10): 0.132

ACGAGCGCTTGGGTTCTAACCTGTTGCCT (site ACGACCGCTAG)
recombinant barcode read abundance (log10): 0.0589

ACGAGCGCTTGGGTTCTAACCTGTTGCCT (site ACGAGCGCTAG)
recombinant barcode read abundance (log10): 1.54

ACGAGCGCTTGGGTTCTAACCTGTTGCCT (site ACGATCGCTAG)
recombinant barcode read abundance (log10): 0.0598

ACGAGCTCTTGGGTTCTAACCTGTTGCTG (site ACGAGCTCTCA)
recombinant barcode read abundance (log10): 1.84

ACGAGCTCTTGGGTTCTAACCTGTTGCTG (site CCGCGCTCTCA)
recombinant barcode read abundance (log10): 0.0264

ACGAGTACTTGGGTTCTAACCTGTTGCTG (site ACGAGTACTCA)
recombinant barcode read abundance (log10): 1.02

ACGAGTACTTGGGTTCTAACCTGTTGCTG (site ACGAGTACTCC)
recombinant barcode read abundance (log10): 0.662

ACGAGTCCTTGGGTTCTAACCTGTTGCGT (site ACGAGTCCTAC)
recombinant barcode read abundance (log10): 2.6

ACGAGTCCTTGGGTTCTAACCTGTTGCGT (site ACGAGTCCTAG)
recombinant barcode read abundance (log10): 0.202

ACGCAATCTTGGGTTCTAACCTGTTGCCT (site ACGCAATCTAG)
recombinant barcode read abundance (log10): 0.0303

ACGCAATCTTGGGTTCTAACCTGTTGCCT (site ACGCACTCTAG)
recombinant barcode read abundance (log10): 0.0895

ACGCAATCTTGGGTTCTAACCTGTTGCCT (site ACGCAGTCTAG)
recombinant barcode read abundance (log10): 0.131

ACGCAATCTTGGGTTCTAACCTGTTGCCT (site ACGCATTCTAG)
recombinant barcode read abundance (log10): 0.157
